Measurements as given in US9579364B2, “Methods for treating benign prostatic hypertrophy (BPH)” (New York University, priority 2002, dated 2017).
Values joined by “and” are separate entries in the source; they are usually repeats but may differ in a detail not shown here. Equal entries are not always repeated. Marks after values point to notes of the source that are not given here. Numbered stars: 1 amine (or outer) side, 2 acyl side, 3 side chain; on linkers, the order of the positions; unused ones are H or OH. Square brackets hold non-standard residues; d marks the D form. Side chains are listed from the residue outwards. Peptide text beside a SMILES is read from it. * marks the point of attachment. Ethylenediamine = C(CN[*:2])N[*:1]; Hyp = O=C(O)[C@@H]1C[C@@H](O)CN1; Phg = N[C@H](C(=O)O)c1ccccc1; CO = O=C([*:1])[*:2]; Bn = c1ccc(C*)cc1

Experiments:
[1] = PQ401 or SS14 treatment of intact 28 day old male mice: body weight; format: in vivo
Description: (§1) In a first experimental approach, the effect of treatment of intact 28 day old male mice with vehicle or PQ401 (a small molecule IGF-I receptor specific inhibitor) or somatostatin-14 (SS14; a native somatostatin) was evaluated. PQ401 and SS14 inhibit IGF-I action. For these experiments, N=5 mice per group. The results of these experiments are presented below in Tables 7-10: […]

[2] = system: prostate of estradiol-treated male Wistar rats; experiment: Estradiol-treated male Wistar rat model of BPH; format: in vivo; conditions: for mean gland size: difference not significant
Source text: To evaluate further the efficacy of somatostatin 14 (SS-14) in the treatment of BPH and related urinary tract obstruction, the present inventors used an animal model system in which prostate hyperplasia, together with prostatitis is induced by administration of estradiol to male Wistar rats. The estradiol-treated Wistar rat animal model system was originally described by Robinette (1988, The Prostate 12:271-286; the content of which is incorporated herein in its entirety) as offering an animal model of the inflammation and fibromuscular growth observed in human BPH. Robinette also described the estradiol-treated Wistar rat animal model system as useful for identifying factors and/or xenobiotics that can inhibit or potentially reverse progression of prostatic fibromuscular proliferation. Wilson et al. (Exp Mol Pathol. 2004; 77:7-17; the content of which is incorporated herein in its entirety) also presented guidance pertaining to the estradiol-treated Wistar rat animal model system of Robinette, offering that chronic inflammation induced in the lateral prostate by estrogen treatment is accompanied later by fibromuscular proliferation, which correlates with the prevalence of chronic inflammation in BPH in men. To assay the therapeutic benefit of IGF-I inhibitors in an animal model system, the present inventors utilized the animal model system of Robinette (supra), as modified in accordance with standard methodology as set forth herein.
Three month old Wistar rats were treated for 2 weeks with 1-cm long 0.078 i.d.×0.125 o.d. Silastic tubings filled with estradiol (E2). Another group of estradiol treated animals was also given SS-14 via Alzet pump implanted into the subcutaneous fat of the back, at a dosage of 15 μg/kg/hour. At the end of the treatment period animals were sacrificed and prostates removed en bloc. A total of four animals were analyzed per group.
Prior to fixing and embedding, prostates were weighed. Bladder and coagulating glands were removed and the remaining tissues were embedded with urethral opening down. Blocks were then sectioned at 150 μm intervals.
The effect on total area of prostate occupied by glands was also assessed. To determine whether SS-14 would have an inhibitory effect on the glandular component of the prostate, the area of the organ occupied by glands in transverse sections, including the urethra and cut at the level at which the width of the prostate was maximal, was measured. Gland area is expressed as it relates to the total area of the organ in transverse sections.
The effect of SS-14 on the Fibromuscular Compartment surrounding the Urethra was also evaluated. To determine whether SS-14 reduced the fibromuscular component of the urethra, tissue sections were immunostained for smooth muscle α actin (αSMA). Each prostate was cut at 5 different levels, with 150 microns between each set of sections. The results of αSMA staining are shown in the photomicrographs depicted in FIG. 8; the whole urethra is indicated by circles and the surrounding fibromuscular layer by arrows.

[3] = system: prostate of intact 28 day old male mice; experiment: PQ401 or SS14 treatment of intact 28 day old male mice: prostate; format: in vivo
Description: To examine further the effect of various compounds on glandular and fibromuscular development of the prostate, somatostatin-14 (SS14, a native somatostatin) and an exemplary small molecule IGF-I receptor inhibitor PQ401 were assessed in a variety of animal models.
as §1

[4] = system: patients suffering from acromegaly; conditions: acromegalic patients, 1 year, cited from earlier work
mammary gland = conditions: cited from earlier work
[5] = system: prostate of castrated Ames dwarf mice; experiment: IGFBP-1 inhibition of GH-induced prostate development in castrated Ames dwarf mice; format: in vivo; conditions: 10-wk-old castrated Ames dwarf mice, 7 d
Description: To determine whether IGF-I inhibition could impair prostate development induced by GH-stimulated IGF-I and normal development in eugonadal animals, the effect of IGFBP-1 was tested in the following two models.
Ames dwarf mice have impaired prostate development because they are deficient in GH. They are also deficient in prolactin, TSH, and gonadotrophins (Andersen et al., 1995, Dev Biol 172:495-503; the entire content of which is incorporated herein by reference). To determine if IGFBP-1 could prevent bGH-induced IGF-I action, 10-wk-old castrated Ames animals were treated with bGH with or without infusion of IGFBP-1 for 7 d. IGFBP-1 inhibited GH-induced fibromuscular and glandular development (Table 6).

IGF-I = IGF-I by RIA in homogenates of prostate glands after bGH; format: in vivo; conditions: 87 day old male mice, bGH 200 μg daily for 4 days; untreated 223
Description: IGF-I, as measured by RIA, was detected in homogenates of prostate glands from 87 day old male mice (223 ng/5 prostates). When bGH (200 μg daily for 4 days) was administered IGF-I rose to 418-526 ng/5 prostates. Serum IGF-I was 494 ng/ml in normal male mice. The IGF-I in prostate was likely produced there because bGH increases IGF-I mRNA in prostate.

[6] = system: prostate of IGF-I^(−/−) null male mice; experiment: Restoration of prostate development in IGF-I(-/-) null male mice; format: in vivo
Source text: That IGF-I was also found to be essential for full prostate development was shown in a series of experiments employing IGF-I^(−/−) null male mice.

[7] = system: prostate of Lit/Lit dwarf animals; experiment: bGH restoration of impaired prostate development in Lit/Lit dwarf animals; format: in vivo; conditions: Lit/Lit dwarf mice
Description: These include transgenic mice overexpressing a GH antagonist (that binds to and inactivates GH receptors making the animals functionally deficient in GH), growth hormone releasing factor receptor (GHRH-R^−/−) knockout mice (Lit/Lit), and Ames (df/df) mice (Prop 1 Deficiency). Deficient prostate development in GH inhibitor overexpression animals was previously reported (see Ruan et al, Endocrinology 140:1984-1989, 1999). Analysis of development was determined by dissecting away the periprostatic fat and teasing the glandular structures from the connective tissue in a solution containing collagenase so that the entire glandular tree could be photographed for later structural analysis. Much the same as in the mice overexpressing the mutant growth hormone, the other GH deficient mice had significant impairment of prostate development (p<0.0002) including a reduction in the number of terminal duct tips (TDTs), the area of the prostate gland, the number of quaternary branches and the number of branch points (TABLE 3). Any differences in these GH deficient mice may in part be due to the fact that the different strains were not analyzed at exactly the same age (Lit/Lit 50 days old, Ames 47 days old and bGH transgenic 44 days of age). The n was also different which may have led to greater significance in the Lit/Lit mice.
The fact that GH treatment was capable of restoring impaired prostate development in GH deficient mice was shown in an experiment on Lit/Lit dwarf animals. Groups of animals were treated with either bGH (100 μg over 7 days by Alzet pump) or vehicle. The prostates were then removed and examined as described above. Treatment with bGH increased the number of TDTs from a mean of 48 (controls) to 61 (treated) p=0.011, the area of the gland from 0.71 cm^2 to 1.12 (NS), quaternary branching from 35 to 44 (p<0.01) and branch points from 37 to 46 (p=0.011).

[8] = system: prostate of intact wild-type male mice; experiment: IGFBP-1 effect on prostate development in 4-wk-old intact wild-type male mice; format: in vivo
Description: FIG. 7 depicts the effect of IGFBP-1 treatment on prostate structures in intact 28 day old male mice. After 7 d of treatment with IGFBP-1 or vehicle, prostate development in both fibromuscular and glandular compartments was analyzed. Effects on fibromuscular development (A), epithelial development (B), lumen size (C), total prostate area (D), and prostate weight (E) are shown. Effects of IGFBP-1 (compared with control) on cell division and programmed cell death are shown in representative photomicrographs (F) showing the effect of IGFBP-1 (lower row) on cell division (left) and apoptosis (right) compared with control animals (top row) Arrows point to Ki67 or TUNEL staining in stroma, and arrows point to those effects in glands. Magnification, 400×. Effects of Ki67 staining (G) for cell division (left) and effects on programmed cell death by TUNEL (right). WT, Wild type.
Eugonadal intact mice. The effect of treatment with IGH3P-1 on prostate development in 4-wk-old intact wild-type male mice was also studied. When compared with saline-treated control animals, IGFBP-1 inhibited all fibromuscular development, epithelial development, lumen size, prostate area, and prostate weight (FIG. 7, A-E). IGFBP-1 inhibited cell division in the epithelial compartment, and increased apoptosis in both fibromuscular and epithelial compartments (FIGS. 7, F and G).

[9] = 4-wk-old intact wild-type male mice (FIG. 7, F and G)

## C[C@H](N)C(=O)NCC(=O)N[C@H]1CSSC[C@@H](C(=O)O)NC(=O)[C@H](CO)NC(=O)[C@H]([C@@H](C)O)NC(=O)[C@H](Cc2ccccc2)NC(=O)[C@H]([C@@H](C)O)NC(=O)[C@H](CCCCN)NC(=O)[C@H](Cc2c[nH]c3ccccc23)NC(=O)[C@H](Cc2ccccc2)NC(=O)[C@H](Cc2ccccc2)NC(=O)[C@H](CC(N)=O)NC(=O)[C@H](CCCCN)NC1=O [SS14, Somatostatin-14]
[1]; controls 26.9 ± 0.3
  Body weight: 23.9 ± 0.3 gm
[1]; vs controls
  % Reduction of body weight: 11%
[2]; E2-treated Wistar rats
  mean gland size: 0.078 mm^2
[2]; vs control E2-treated rats (vehicle only), p=0.024
  prostate weight of E2-treated rats, first set of experiments: significant reduction
[3]; 28 day old male mice, controls 0.939
  area of the Longitudinal muscle: 0.486 mm^2
[3]; 28 day old male mice, controls 1.322
  total area of the Circular muscle: 0.438 mm^2
[3]; intact 28 day old male mice, vs 28 day control
  % Reduction of prostate weight: 37%

## C[C@]12CC[C@@H]3c4ccc(O)cc4CC[C@H]3[C@@H]1CC[C@@H]2O [E2, estradiol]
[2]; 3 month old Wistar rats, E2 2 weeks, SS-14 15 μg/kg/hour by Alzet pump, Animal #1-#4
  Weight of prostates, individual animals: 0.570 grams and 0.580 grams and 0.532 grams and 0.630 grams
[2]; 3 month old Wistar rats, E2 2 weeks, SS-14 15 μg/kg/hour, second set of experiments, p=0.019
  MEAN WEIGHT of prostates: 0.578 grams
[2]; E2-treated Wistar rats
  Ratio between the prostate area occupied by glandular elements and the whole organ area in transverse sections, individual animals: 0.8467 and 0.857 and 0.8758 and 0.8596
  mean gland size: 0.099 mm^2
[2]; E2-treated Wistar rats, αSMA immunostaining
  Fibromuscular Layer Area of the urethra, MEAN AREA: 2.938 mm2
[2]; E2-treated Wistar rats, αSMA immunostaining, Animal #1-#4
  Fibromuscular Layer Area of the urethra, individual animals: 3.412 mm2 and 1.822 mm2 and 2.369 mm2 and 4.149 mm2
[2]; E2-treated Wistar rats, p=0.028
  Ratio between the prostate area occupied by glandular elements and the whole organ area in transverse sections, AVERAGE: 0.860

## octreotide
[4]; in most of the patients treated
  circulating GH and IGF-I levels: normalization
[4]
  prostate volume: reduction

## NCCCC[C@@H]1NC(=O)[C@@H](Cc2c[nH]c3ccccc23)NC(=O)[C@H](c2ccccc2)NC(=O)[C@@H]2C[C@@H](OC(=O)NCCN)CN2C(=O)[C@H](Cc2ccccc2)NC(=O)[C@H](Cc2ccc(OCc3ccccc3)cc2)NC1=O [SOM230, pasireotide] (cyclo(F[Hyp]([CO-Ethylenediamine])[Phg][dW]KY(Bn)))
Mammary gland
  mammary development in rats: prevent mammary development
Mammary gland; rats
  IRS-1 phosphorylation in the mammary gland: reduction

B1: bGH: growth hormone (bGH) given to GH deficient mice by Alzet pump (protein, UniProt P01246 27-217, looked up)
Somatotropin: AFPAMSLSGLFANAVLRAQHLHQLAADTFKEFERTYIPEGQRYSIQNTQVAFCFSETIPAPTGKNEAQQKSDLELLRISLLLIQSWLGPLQFLSRVFTNSLVFGTSDRVYEKLKDLEEGILALMRELEDGTPRAGQILKQTYDKFDTNMRSDDALLKNYGLLSCFRKDLHKTETYLRVMKCRRFGEASCAF
[5]
  Epithelium: 160.5 ± 4.0^c,d μm^2 (×10^3)
  Fibromuscular: 253.4 ± 18.6^a,b μm^2 (×10^3)
  Lumen: 274.7 ± 11.9^c,d μm^2 (×10^3)
  Total: 688.6 ± 32.4^a,b μm^2 (×10^3)
IGF-I
  IGF-I in homogenates of prostate glands (RIA): 418-526 ng/5 prostates
[6]
  restoring impaired prostate development: no effect
[7]; bGH 100 μg over 7 days by Alzet pump, controls 48, p=0.011
  number of TDTs (mean): 61
[7]; bGH 100 μg over 7 days, controls 0.71, NS
  area of the gland: 1.12 cm^2
[7]; bGH 100 μg over 7 days, controls 35, p<0.01
  quaternary branching: 44
[7]; bGH 100 μg over 7 days, controls 37, p=0.011
  branch points: 46

B2: IGFBP-1: insulin-like growth factor binding protein, inhibitor of IGF-I action (protein, UniProt P08833 26-259, looked up)
Insulin-like growth …: APWQCAPCSAEKLALCPPVSASCSEVTRSAGCGCCPMCALPLGAACGVATARCARGLSCRALPGEQQPLHALTRGQGACVQESDASAPHAAEAGSPESPESTEITEEELLDNFHLMAPSEEDHSILWDAISTYDGSKALHVTNIKKWKEPCRIELYRVVESLAKAQETSGEEISKFYLPNCNKNGFYHSRQCETSMDGEAGLCWCVYPWNGKRIPGSPEIRGDPNCQIYFNVQN
[8]; [9]
  apoptosis in both fibromuscular and epithelial compartments (TUNEL): increased
  cell division in the epithelial compartment (Ki67): inhibited
[8]; 4-wk-old intact wild-type male mice, 7 d, vs saline-treated control (FIG. 7, A-E)
  fibromuscular development, epithelial development, lumen size, prostate area, and prostate weight: inhibited
